Results taken from patent publication US20250197387A1, “BCL-XL DEGRADERS AND USES THEREOF” (Kymera Therapeutics, Inc., priority 2021, published 2025).
Like-named read-outs stand apart in the source and are kept apart here.

Tests used:
Assay type in all cases: cell-based
[1] = system: MOLT-4 cells; assay: CTG (CellTiter-Glo) cell viability assay, MOLT-4; details: Homo sapiens, 3 day incubation, read-out: CTG Cell Viability Assay - MOLT-4 3 day: Average external-IC50
How it was run: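 Luminescence from CellTiter-Glo, read after 3 days of compound exposure at 37 °C, gave viability; IC50 values came from three-parameter logistic curves. Cells were plated at 10,000 per well and dosed over nine 1:3 steps topping at 10 μM.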

[2] = molecular target: T1, BCL-XL (Homo sapiens, UniProt Q07817); assay: Bcl-xL ELISA degradation in MOLT-4 cells, 6 h; details: for DC50: read-out: Bcl-xL ELISA in MOLT-4 degradation 6 h: Mean external-Abs DC50
T1 construct: endogenous in cells; host or cells: MOLT-4
T1 sequence (Q07817 whole entry): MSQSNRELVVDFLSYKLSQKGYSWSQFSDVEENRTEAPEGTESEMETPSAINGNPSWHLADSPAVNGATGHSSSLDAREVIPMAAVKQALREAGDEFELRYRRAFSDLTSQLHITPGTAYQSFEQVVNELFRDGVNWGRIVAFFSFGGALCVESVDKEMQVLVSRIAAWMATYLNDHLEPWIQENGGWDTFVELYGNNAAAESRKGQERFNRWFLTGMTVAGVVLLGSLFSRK
Procedure: The letter codes for BCL-XL DC50 include: A (<0.01 μM); B (0.01-0.1 μM); C (>[…]); D (>0.5-1.0 μM); and E (>1.0 μM). The letter codes for Dmax % include A (>75%); B (50 to 75%); C (<50%).

[3] = system: Caki-2 cells; assay: CTG (CellTiter-Glo) cell viability assay, Caki-2; details: Homo sapiens, 72 h, 3 day incubation, read-out: CTG Chempartner - Caki-2 3 day: Average external-IC50
Procedure: Compound-mediated viability effect on MOLT-4 and Caki-2 was quantitatively determined using the CellTiter-Glo® Luminescent Cell Viability Assay kit from Promega (Catalog number G7570) following manufacturer's recommended procedures. Briefly, MOLT-4 and Caki-2 cells were seeded into 384 well plates (Grenier Bio-One, Catalog number 781080) with a density of 10,000 cells per well. Compounds were then added to the assay plate with final top concentration of 10 μM and 1:3 dilution series with total of 9 doses. The final DMSO concentration is normalized to 0.2%. The assay plates were incubated at 37° C., for 3 days under 5% CO2. Then the assay plate was equilibrated at room temperature for 10 minutes. To determine cell viability, 30 uL CellTiter Glo reagent was added to each well and the assay plate was centrifuged at 1000 rpm for 30 second, incubated at room temperature for 10 min, and analyzed by detecting the luminescence using a multimode plate reader (EnVision 2105, PerkinElmer). The data was then analyzed by software Prism 7.0 from GraphPad and the dose response curves are fit using a three-parameter logistic equation to calculate IC50.
The letter codes for MOLT-4 IC50 include: A (<0.1 μM); B (0.1-1.0 μM); C (>1.0-3.0 μM); and D (>3.0 μM). The letter codes for Caki-2 IC50 include: A (<0.1 μM); B (0.1-1.0 μM); C (>1.0-10.0 μM); and D (>10.0 μM).

[4] = molecular target: T1, BCL-XL; assay: BCL-XL degradation assay, western blot in MOLT-4 cells, 16 h; details: western blot, MOLT-4 cells, 16 h; for Dmax: read-out: Bcl-xL WB in MOLT-4 degradation 16 h: Average Dmax %; for DC50: read-out: Bcl-xL WB in MOLT-4 degradation 16 h: Mean external-Abs DC50
How it was run: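 MOLT-4 cells treated with compounds at 0.02-10 μM final for 16 hr at 37° C; lysates analysed by western blot with anti-BCL-xL, beta-actin and GAPDH loading controls, infrared imaging and densitometry; DC50 and Dmax % reported as letter codes.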

Structure (SMILES) | IC50 ([1]; MOLT-4, 72 h) [nM] | IC50 [3] [nM] | further results
C#Cc1ccc([C@H](C)NC(=O)[C@@H]2C[C@@H](O)CN2C(=O)[C@@H](NC(=O)CCCCCS(=O)(=O)NC(=O)c2nc(N(C)c3cc(C)c(Nc4nc5ccccc5s4)nn3)ccc2-c2cnn(CC34CC5CC(CC(C5)C3)C4)c2C)C(C)(C)C)cc1 [I-382] | < 100 | > 10000 | Dmax [2]: > 75%; DC50 [2]: < 10 nM
C#Cc1ccc([C@H](C)NC(=O)[C@@H]2C[C@@H](O)CN2C(=O)[C@@H](NC(=O)CCCCCS(=O)(=O)NC(=O)c2nc(N3CCc4cccc(C(=O)Nc5nc6cccnc6s5)c4C3)ccc2-c2cnn(CC3CCCCC3)c2C)C(C)(C)C)cc1 [I-364] | < 100 | > 10000 | Dmax [2]: > 75%; DC50 [2]: < 10 nM
C#Cc1ccc(CNC(=O)[C@@H]2C[C@@H](O)CN2C(=O)[C@@H](NC(=O)CCNCCS(=O)(=O)NC(=O)c2nc(N(C)c3cc(C)c(Nc4nc5ccccc5s4)nn3)ccc2-c2cnn(CC34CC5CC(CC(C5)C3)C4)c2C)C(C)(C)C)c(OCCO)c1 [I-431] | 100 to 1000 | > 10000 | –
C#Cc1ccc([C@H](C)NC(=O)[C@@H]2C[C@@H](O)CN2C(=O)[C@@H](NC(=O)CCCCCS(=O)(=O)NC(=O)c2nc(N3CCc4cccc(C(=O)Nc5nc6ccccc6s5)c4C3)ccc2-c2cnn(CC(C)(C)C)c2C)C(C)(C)C)cc1 [I-470] | < 100 | > 10000 | –
Cc1cc(N2CC(C(=O)N[C@H](C(=O)N3C[C@H](O)C[C@H]3C(=O)NCc3ccc(-c4scnc4C)cc3)C(C)(C)C)C2)ccc1S(=O)(=O)NC(=O)c1nc(N(C)c2cc(C)c(Nc3nc4ccccc4s3)nn2)ccc1-c1cnn(CC23CC4CC(CC(C4)C2)C3)c1C [I-435] | < 100 | > 10000 | –
Cc1ncsc1-c1ccc([C@H](C)NC(=O)[C@@H]2C[C@@H](O)CN2C(=O)[C@@H](NC(=O)CCCCCS(=O)(=O)NC(=O)c2nc(N3CCc4cccc(C(=O)NCc5cnco5)c4C3)ccc2-c2cnn(CC3CCCCC3)c2C)C(C)(C)C)cc1 [I-461] | 100 to 1000 | > 10000 | –
Cc1csc(NC(=O)c2cccc3c2CN(c2ccc(-c4cnn(CC5CCCCC5)c4C)c(C(=O)NS(=O)(=O)CCCCCC(=O)N[C@H](C(=O)N4C[C@H](O)C[C@H]4C(=O)N[C@@H](C)c4ccc(-c5scnc5C)cc4)C(C)(C)C)n2)CC3)n1 [I-462] | 100 to 1000 | > 10000 | –
Cc1ncsc1-c1ccc([C@H](C)NC(=O)[C@@H]2C[C@@H](OC(=O)CCP(=O)(O)O)CN2C(=O)[C@@H](NC(=O)CCCS(=O)(=O)NC(=O)c2nc(N3CCc4cccc(C(=O)Nc5nc6ccccc6s5)c4C3)ccc2-c2cnn(CC3CCCCC3)c2C)C(C)(C)C)cc1 [I-411] | – | > 10000 | IC50 ([1]; 72 h): 100 to 1000 nM
Cc1c(-c2ccc(N3CCc4cccc(C(=O)Nc5nc6cccnc6s5)c4C3)nc2C(=O)NS(=O)(=O)CCCCCC(=O)N[C@H](C(=O)N2C[C@H](O)C[C@H]2C(=O)N[C@@H](C)c2ccc(C#N)cc2O)C(C)(C)C)cnn1CC1CCCCC1 (single isomer, unassigned) [I-485] | > 3000 | > 10000 | –
Cc1ccc(NC(=O)c2cccc3c2CN(c2ccc(-c4cnn(CC5CCCCC5)c4C)c(C(=O)NS(=O)(=O)CCCCCC(=O)N[C@H](C(=O)N4C[C@H](O)C[C@H]4C(=O)N[C@@H](C)c4ccc(-c5scnc5C)cc4)C(C)(C)C)n2)CC3)nc1 [I-458] | > 3000 | > 10000 | –
Cc1cc(N(C)c2ccc(-c3cnn(CC45CC6CC(CC(C6)C4)C5)c3C)c(C(=O)NS(=O)(=O)CCNCCC(=O)N[C@H](C(=O)N3C[C@H](O)C[C@H]3C(=O)N[C@@H](C)c3ccc(-c4scnc4C)cc3)C(C)(C)C)n2)nnc1Nc1nc2ccccc2s1 [I-427] | 100 to 1000 | > 10000 | –
Cc1cc(N(C)c2ccc(-c3cnn(CC45CC6CC(CC(C6)C4)C5)c3C)c(C(=O)NS(=O)(=O)CCN3CC(C(=O)N[C@H](C(=O)N4C[C@H](O)C[C@H]4C(=O)N[C@@H](C)c4ccc(-c5scnc5C)cc4)C(C)(C)C)C3)n2)nnc1Nc1nc2ccccc2s1 [I-432] | 1000 to 3000 | > 10000 | –
Cc1ncsc1-c1ccc(CNC(=O)[C@@H]2C[C@@H](O)CN2C(=O)[C@@H](NC(=O)C2(F)CC2)C(C)(C)C)c(OCC(=O)N2CCN(CC[C@H](CSc3ccccc3)Nc3ccc(S(=O)(=O)NC(=O)c4ccc(N5CCN(CC6=C(c7ccc(Cl)cc7)CCC(C)(C)C6)CC5)cc4)cc3S(=O)(=O)C(F)(F)F)CC2)c1 [I-387] | – | > 10000 | Dmax [4]: > 75%; DC50 [4]: 10 to 100 nM
Cc1cc(N(C)c2ccc(-c3cnn(CC4CCCC4)c3C)c(C(=O)NS(=O)(=O)c3ccc(N4CCC(C(=O)N[C@H](C(=O)N5C[C@H](O)C[C@H]5C(=O)N[C@@H](C)c5ccc(-c6scnc6C)cc5)C(C)(C)C)CC4)cc3)n2)nnc1Nc1nc2ccccc2s1 [I-441] | 1000 to 3000 | > 10000 | –
Cc1ncsc1-c1ccc([C@H](C)NC(=O)[C@@H]2C[C@@H](O)CN2C(=O)[C@@H](NC(=O)CCCCCS(=O)(=O)NC(=O)c2nc(N3CCc4cccc(C(=O)Nc5nc6ccccc6s5)c4C3)ccc2-c2cnn(CC3CCCCC3)c2C)C(C)(C)C)cc1 [I-118] | – | > 10000 | Dmax [2]: > 75%; DC50 [2]: < 10 nM; Dmax [4]: > 75%; DC50 [4]: < 10 nM
Cc1cc(N(C)c2ccc(-c3cnn(CC45CC6CC(CC(C6)C4)C5)c3C)c(C(=O)NS(=O)(=O)CCCCCC(=O)N[C@H](C(=O)N3C[C@H](O)C[C@H]3C(=O)N[C@@H](C)c3ccc(-c4scnc4C)cc3)C(C)(C)C)n2)nnc1Nc1nc2cccnc2s1 [I-439] | 100 to 1000 | > 10000 | –
C#Cc1ccc(CNC(=O)[C@@H]2C[C@@H](O)CN2C(=O)[C@@H](NC(=O)CCCCCS(=O)(=O)NC(=O)c2nc(N(C)c3cc(C)c(Nc4nc5ccccc5s4)nn3)ccc2-c2cnn(CC(C)(C)C)c2C)C(C)(C)C)cc1 [I-472] | 100 to 1000 | > 10000 | –
Cc1ncsc1-c1ccc([C@H](C)NC(=O)[C@@H]2C[C@@H](O)CN2C(=O)[C@@H](NC(=O)CCCC(=O)N(C)CC#Cc2cccc(F)c2OCCCc2sc(N3CCc4cccc(C(=O)Nc5nc6ccccc6s5)c4C3)nc2C(=O)O)C(C)(C)C)cc1 [I-15] | – | > 10000 | Dmax [4]: 50 to 75%; DC50 [4]: 500 to 1000 nM
C#Cc1ccc([C@H](C)NC(=O)[C@@H]2C[C@@H](O)CN2C(=O)[C@@H](NC(=O)CCCCCS(=O)(=O)NC(=O)c2nc(N3CCc4cccc(C(=O)Nc5nc6cccnc6s5)c4C3)ccc2-c2cnn(CC(C)(C)C)c2C)C(C)(C)C)cc1 [I-469] | 100 to 1000 | > 10000 | –
Cc1ncsc1-c1ccc([C@H](C)NC(=O)[C@@H]2C[C@@H](O)CN2C(=O)[C@@H](NC(=O)CCCCCCCC(=O)N(C)CC#Cc2cccc(F)c2OCCCc2sc(N3CCc4cccc(C(=O)Nc5nc6ccccc6s5)c4C3)nc2C(=O)O)C(C)(C)C)cc1 [I-17] | – | > 10000 | Dmax [4]: > 75%; DC50 [4]: 10 to 100 nM
Cc1cc(N(C)c2ccc(-c3cnn(CC45CC6CC(CC(C6)C4)C5)c3C)c(C(=O)NS(=O)(=O)CCCN(C)CC(=O)N[C@H](C(=O)N3C[C@H](O)C[C@H]3C(=O)N[C@@H](C)c3ccc(-c4scnc4C)cc3)C(C)(C)C)n2)nnc1Nc1nc2cccnc2s1 [I-448] | 100 to 1000 | > 10000 | –
C#Cc1ccc(CNC(=O)[C@@H]2C[C@@H](O)CN2C(=O)[C@@H](NC(=O)CCCCCS(=O)(=O)NC(=O)c2nc(N3CCc4cccc(C(=O)Nc5nc6cccnc6s5)c4C3)ccc2-c2cnn(CC(C)(C)C)c2C)C(C)(C)C)cc1 [I-468] | 1000 to 3000 | > 10000 | –
Cc1ncsc1-c1ccc(CNC(=O)[C@@H]2C[C@@H](O)CN2C(=O)[C@@H](NC(=O)C2(F)CC2)C(C)(C)C)c(OCCCCCCN(C)C(=O)c2nc(N3CCc4cccc(C(=O)Nc5nc6ccccc6s5)c4C3)ccc2-c2cnn(CC3CCCCC3)c2C)c1 [I-168] | 100 to 1000 | > 10000 | –
C#Cc1ccc(CNC(=O)[C@@H]2C[C@@H](O)CN2C(=O)[C@@H](NC(=O)CCCS(=O)(=O)NC(=O)c2nc(N3CCc4cccc(C(=O)Nc5nc6cccnc6s5)c4C3)ccc2-c2cnn(CC(C)C)c2C)C(C)(C)C)cc1 [I-412] | > 3000 | > 10000 | –
